Measurements: US20140371165A1, “Identification of NSC23925 Isomers to Reverse Multidrug Resistance in Human Cancers” (priority 2012, published 2014)
Where a name gives a salt, the structure may show the parent alone.

Columns and labels:
[1] = test system: MCF-7adr; assay: MTT cytotoxicity assay and reversal of MDR in MCF-7adr; type: cell-based, human
Excerpt: A panel of parental cancer cell line and their daughter resistant cell lines, displaying MDR phenotype were used in this study. Human ovarian cancer cell line SKOV-3, breast cancer cell line MCF-7 and colon cancer cell line SW480, the osteosarcoma cell line U-2OS, KHOS, uterine sarcoma cell line MESSA and its doxorubicin selected drug resistant cell line MESSA/Dx5, non-small cell lung cancer cell line H-69 and its doxorubicin selected drug resistant cell line H-69AR (overexpress MRP1) were obtained from the ATCC (Rockville, Md.). Dr. Efstathios Gonos (Institute of Biological Research & Biotechnology, Athens, Greece) provided the doxorubicin resistant U-2OS R2 (referred in the text below as U-2OSDR), KHOS R2 cell lines. Dr. Erasmus Schneider (Wadsworth Center, Albany) provided the mitoxantrane resistant breast cancer MCF-7/MX (overexpress BCRP) cell line. All the cell lines were cultured in RPMI 1640 (Invitrogen, Carlsbad, Calif.) supplemented with 10% fetal bovine serum, 100-units/ml penicillin and 100 μg/ml streptomycin (Invitrogen). Cells were incubated at 37° C. in 5% CO2-95% air atmosphere and passaged when near confluent monolayers were achieved using 2% trypsin-EDTA solution. […] The fresh chemotherapy drugs were obtained from the pharmacy at the Massachusetts General Hospital and stored at −20° C.
To evaluate for reversal of Pgp-mediated MDR, SKOV-3TR, MCF-7adr and SW480TR cell lines were seeded into 96-well tissue culture plate at 2,000 cells per well with varying concentrations of chemotherapy drugs and NSC23925b for 6 days. Cell proliferation IC50 (concentration required for 50% inhibition) and MDR reversal IC50 were determined from dose-response curves carried out in triplicate in 96-well plate. Fold of reverse resistance for individual drugs were defined as the IC50 of MDR cells without NSC23925b treatment divided by the IC50 of MDR cells treated with NSC23925b. […] Drug cytotoxicity was assessed in vitro using the MTT assay as previously described. […] Response curves were fitted with use of GraphPad PRISM 4 software (GraphPad Software).
MCF-7adr and SW480TR cells were treated with paclitaxel (FIGS. 2A-B), doxorubicin (FIGS. 2C-D) or mitoxantrane (FIGS. 2E-F) and NSC23925b in RPMI1640 complete media at the indicated concentrations. The relative sensitivity of each line to the indicated drugs was determined by MTT analysis 6 days post-treatment.

[2] = molecular target: T1, Pgp (Homo sapiens, UniProt P08183); assay: Calcein AM drug efflux fluorescence microscopy assay (Vybrant multi-drug resistance kit); type: cell-based
T1 construct: multidrug resistant cells expressing high levels of Pgp rapidly extrude non-fluorescent calcein AM from the plasma membrane; endogenous in cells; host or cells: MCF-7adr and SW480TR drug-resistant cells
Excerpt: The Vybrant™ multi-drug resistance assay kit (Invitrogen/Molecular Probes) was used to measure drug efflux properties of different resistant cell lines. This assay utilizes the fluorogenic dye calcein acetoxymethyl ester (calcein AM) as a substrate for efflux activity of Pgp or other membrane pump ABC proteins. Calcein AM is taken up by cells and hydrolyzed by cytoplasmic esterases to fluorescent calcein. Calcein […] is well retained in the cytosol. However, multidrug resistant cells expressing high levels of Pgp rapidly extrude non-fluorescent calcein AM from the plasma membrane, reducing accumulation of fluorescent calcein in the cytosol. Studies were carried out as described. In brief, drug resistant cells (5,000 cells per well) were cultured in 96-well plate for 24 hours. Triplicated cultures of cells were treated with different concentrations of NSC23925b for one hour and then incubated in calcein AM in 100 μl total volume. After 30 minutes, images were acquired by Nikon Eclipse Ti-U fluorescence microscope (Nikon Corp.) equipped with a SPOT RT digital camera (Diagnostic Instruments, Inc., Sterling Heights, Mich.).
The effect of NSC23925b on the uptake and efflux of calcein AM in MCF-7adr and SW480TR was determined. […] The calcein-AM assay was optimized and performed using the Vybrant Multidrug Resistance kit. Cells were seeded at 50,000 cells/well (100 μl of culture medium) in 96-well plate and incubated for 24 hours. MCF-7adr cells in triplicate were treated with NSC23925b for one hour and then incubated in calcein AM for 30 minutes. The cell fluorescence images were acquired by a fluorescence microscope. NSC23925b has a prominent effect on the accumulation of calcein AM in these cells starting at a concentration as low as 1 nM.

[3] = test system: SW480TR; assay: M30-Apoptosense ELISA apoptosis assay in SW480TR; type: cell-based, human; details: NSC23925b 1 μM with doxorubicin 0.5 μM, 72 hours
Experimental: Apoptosis was evaluated using the M30-Apoptosense ELISA assay kit (Peviva AB, Bromma, Sweden) according to the manufacturer's instructions. For the doxorubicin and NSC23925b treatment, MCF-7adr or SW480TR cells were seeded at 8,000 cells/per well in a 96-well plate for 24 hours before treatment. The cells were then treated with 0.5 μM of doxorubicin, 1 μM of NSC23925b, or a combination of the two drugs for an additional 72 hours. The cells were then lysed by an additional […] of 10% NP40 per well, following the manufacturer's instructions for apoptosis assay.
The effect of NSC23925b on the doxorubicin induction of apoptosis was assessed in MCF-7adr or SW480TR. cell lines. Cells were treated with either doxorubicin (0.5 μM) alone, NSC23925b (1 μM) alone, or a combination of doxorubicin and NSC23925b for 72 hours. Apoptosis was scored using the M30-Apoptosense ELISA assay.

T1 sequence (P08183 whole entry): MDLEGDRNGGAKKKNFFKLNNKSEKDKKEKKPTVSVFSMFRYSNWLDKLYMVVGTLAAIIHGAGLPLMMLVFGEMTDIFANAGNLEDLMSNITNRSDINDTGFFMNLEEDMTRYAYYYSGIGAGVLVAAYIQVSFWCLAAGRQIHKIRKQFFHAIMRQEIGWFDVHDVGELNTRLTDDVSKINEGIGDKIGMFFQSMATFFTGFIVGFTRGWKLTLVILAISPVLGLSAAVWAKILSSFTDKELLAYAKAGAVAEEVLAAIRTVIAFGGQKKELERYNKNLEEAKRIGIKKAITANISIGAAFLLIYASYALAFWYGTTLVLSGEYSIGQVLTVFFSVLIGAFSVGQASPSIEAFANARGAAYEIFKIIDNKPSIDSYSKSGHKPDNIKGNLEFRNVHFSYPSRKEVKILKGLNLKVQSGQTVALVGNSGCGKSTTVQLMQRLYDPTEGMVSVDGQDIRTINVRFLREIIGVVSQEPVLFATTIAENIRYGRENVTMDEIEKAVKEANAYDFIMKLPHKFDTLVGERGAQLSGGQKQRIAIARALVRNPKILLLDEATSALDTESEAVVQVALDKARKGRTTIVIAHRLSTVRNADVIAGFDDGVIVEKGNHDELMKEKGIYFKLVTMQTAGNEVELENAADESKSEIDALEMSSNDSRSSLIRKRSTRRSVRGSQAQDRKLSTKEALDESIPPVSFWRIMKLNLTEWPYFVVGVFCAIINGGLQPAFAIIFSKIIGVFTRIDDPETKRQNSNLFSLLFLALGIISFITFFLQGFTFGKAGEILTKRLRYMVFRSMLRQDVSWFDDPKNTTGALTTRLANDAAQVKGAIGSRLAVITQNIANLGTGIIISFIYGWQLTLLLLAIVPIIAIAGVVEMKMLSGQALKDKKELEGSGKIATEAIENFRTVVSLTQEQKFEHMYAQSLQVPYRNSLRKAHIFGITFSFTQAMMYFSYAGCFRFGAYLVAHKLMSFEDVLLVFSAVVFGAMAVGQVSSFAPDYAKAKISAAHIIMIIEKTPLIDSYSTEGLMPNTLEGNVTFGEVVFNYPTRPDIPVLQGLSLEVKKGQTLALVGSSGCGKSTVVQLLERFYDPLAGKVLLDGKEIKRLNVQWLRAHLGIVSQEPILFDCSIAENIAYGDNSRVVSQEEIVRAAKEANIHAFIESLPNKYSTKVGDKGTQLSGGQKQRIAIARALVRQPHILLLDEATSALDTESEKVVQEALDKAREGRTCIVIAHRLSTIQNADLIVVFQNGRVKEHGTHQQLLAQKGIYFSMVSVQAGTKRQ

COc1ccc(-c2cc([C@H](O)[C@H]3CCCCN3)c3ccccc3n2)cc1 [NSC23925b, (2-(4-methoxyphenyl)quinolin-4-yl)(piperidin-2-yl)methanol hydrochloride]
fold-reversal of drug resistance ([1]; Doxorubicin, NSC23925b 0.1 μM): 1.4 fold | fold-reversal of drug resistance ([1]; Doxorubicin, NSC23925b 0.5 μM): 4 fold | fold-reversal of drug resistance ([1]; Doxorubicin, NSC23925b 1 μM): 15 fold | reverse paclitaxel, doxorubicin, and mitoxantrane resistance ([1]; MTT 6 days post-treatment): able to reverse | fold-reversal of drug resistance ([1]; Mitoxantrane, NSC23925b 0.1 μM): 1.1 fold | fold-reversal of drug resistance ([1]; Mitoxantrane, NSC23925b 0.5 μM): 3 fold | fold-reversal of drug resistance ([1]; Mitoxantrane, NSC23925b 1 μM): 6 fold | fold-reversal of drug resistance ([1]; Paclitaxel, NSC23925b 0.1 μM): 1.3 fold | fold-reversal of drug resistance ([1]; Paclitaxel, NSC23925b 0.5 μM): 4 fold | fold-reversal of drug resistance ([1]; Paclitaxel, NSC23925b 1 μM): 12 fold | lowest concentration with prominent effect on accumulation of calcein AM ([2]; MCF-7adr and SW480TR cells): 1 nM | intracellular accumulation of calcein AM ([2]; MCF-7adr and SW480TR, 1 h pretreatment, calcein AM 30 minutes): increase intracellular accumulation of calcein AM in these cell lines in a dose-dependent manner | near maximal reversal of accumulation deficit ([2]; calcein AM, MCF-7adr and SW480TR cells): 500 nM | EC50 ([2]; calcein AM, MCF-7adr and SW480TR cells, read-out: Half-maximal reversal of accumulation deficit): 100 nM | cell death / apoptosis, combination versus either drug alone [3]: significantly greater cell death
